Test results reported in US6562804B2, “Hair-growing agent” (Kyowa Hakko Kogyo Co., Ltd., priority 2001, dated 2003).

Tested on: mouse hair follicle epithelial cells
Experiment: Cell growth-promoting effect on cultured mouse hair follicle epithelial cells (MTT)
Format: cell-based
Settings: C3H mouse hair follicle epithelial cells, 5 days culture, DMSO control = 100
Procedure: Mouse hair follicle epithelial cells were separated and cultured according to a modification of the method of Tanigaki, et al. [Archives of Dermatological Research, 284, 290-296 (1992)].
The skin on the back of a 4-days-old C3H mouse (Charles River Japan, Inc.) was cut off and treated with MEM (Eagle's Minimum Essential Medium) containing 500 units/ml Dispase (Godo Shusei Co., Ltd.) and 5% fetal calf serum (FCS) at 4° C. for 16 hours.
Then, the epidermis was stripped from the skin section, and the obtained dermis layer was treated with DMEM (Dulbecco's modified Eagle Medium) containing 0.25% Collagenase N-2 (Nitta Gelatin Co., Ltd.) and 10% FCS at 37° C. for one hour to obtain a dermis suspension. The dermis suspension was filtered through a 212-μm nylon mesh (Nippon Rikagaku Kikai Co., Ltd.) and the filtrate was centrifuged at 1000 rpm for 5 minutes to obtain pellets containing hair follicle tissue. To the pellets was added calcium/magnesium-free PBS (Dulbecco's Phosphate-Buffered Saline) and the pellets were suspended therein using a pipette. The resulting suspension was allowed to stand for 15 minutes to precipitate hair follicle tissue. The same procedure as above (addition of calcium/magnesium-free PBS, suspending by use of a pipette, and precipitation by allowing the suspension to stand for 15 minutes) was repeated three times using the obtained hair follicle tissue.
Then, the hair follicle tissue was treated with a solution containing 0.1% ethylenediaminetetraacetic acid (EDTA) and 0.25% trypsin (Gibco) at 37° C. for 5 minutes. To the resulting mixture was added DMEM containing 10% FCS to prepare a hair follicle tissue cell suspension having a density of 3×10^5 cells/ml. The hair follicle tissue cell suspension was put into wells of a 24-well collagen-coated plate (Iwaki Glass Co., Ltd.) in an amount of 1 ml/well, followed by culturing in 5% CO2 at 37° C. for 24 hours.
During the culturing, the medium was replaced with a fresh one every other day.
As a control, the cells were cultured in the same medium as above except that DMSO alone was added in an amount of 1/100 by volume in place of DMSO containing a phosphatidic acid, and/or procyanidin B-2 or dl-α-tocopherol.
The degree of cell growth was measured according to the method using MTT [3-(4,5-dimethylthiazol-2-yl)-2,5-diphenyl tetrazolium bromide]
To each well of the 24-well microplate (2 cm^2/well) was added a PBS solution of MTT (5 mg/ml) in an amount of 1/10 by volume based on 1 ml of the culture. The plate was shaken to make the mixture homogeneous, followed by culturing in 5% CO2 at 37° C. for 4 hours.

Row | Compound | Relative cell growth rate based on the control as 100 (active ingredient 30 μmol/l) | Relative cell growth rate based on the control as 100 (active ingredient 1 μmol/l)
1 | Cc1c(C)c2c(c(C)c1O)CCC(C)(CCCC(C)CCCC(C)CCCC(C)C)O2 (racemic) [dl-α-Tocopherol, dl-α-tocopherol, reference compound] | 184 | 
2 | CCCCCCCCCCCCCCCCOCC(COP(=O)(O)O)OC(C)=O (centres unmarked) [1-O-hexadecyl-2-O-acetylglyceryl-3-phosphoric acid] |  | 155
3 | CCCCCCCCCCCCCCCCOCC(COP(=O)(O)O)OC (centres unmarked) [1-O-hexadecyl-2-O-methylglyceryl-3-phosphoric acid] |  | 177
4 | CCCCCCCC/C=C\CCCCCCCC(=O)OCC(COP(=O)(O)O)OC (centres unmarked) [1-O-oleoyl-2-O-methylglyceryl-3-phosphoric acid] |  | 163
5 | Oc1cc(O)c2c(c1)O[C@H](c1ccc(O)c(O)c1)[C@H](O)[C@H]2c1c(O)cc(O)c2c1O[C@H](c1ccc(O)c(O)c1)[C@H](O)C2 [Procyanidin B-2, epicatechin-(4β→8)-epicatechin] | 310 | 
